Measured values reported in patent US11207310B2 (PRILENIA NEUROTHERAPEUTICS LTD., priority 2016, dated 2021).
Read-outs that look alike come from different tables or passages of the source.

Experiments:
[1] = system: patients with HD;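 as to Change from baseline in UHDRS TFC Finance ADL, Δ to placebo: UHDRS Total Functional Capacity items for finances and ADL, each scored 0 to 3, where 3 means normal function and 0 means unable (finances) or total care (ADL)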;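 as to Δ to placebo: UHDRS TFC Finance and ADL score, change from baseline: UHDRS Total Functional Capacity items for finances and ADL, each scored 0 to 3, where 3 means normal function and 0 means unable (finances) or total care (ADL)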
Source text: There are six basic ADLs: eating, bathing, dressing, toileting, transferring (functional mobility) and continence. ADL is scored as follows: a patient requiring total care=0, a patient able to carry out gross tasks only=1, a patient having minimal impairment=2, a patient with no impairment (normal)=3.
The TFC scale of the UHDRS is a standardized scale used to assess 5 functional domains associated with disability shown below (occupation, finances, domestic chores (e.g. laundry, washing dishes), activities of daily living, and care level). The TFC score has a range of 0-13 and is a well-established endpoint for trials aiming disease progression. […] The TFC score is accepted by regulators and often considered the most widely accepted tool for disease procession in HD patients. Additionally, TFC is considered the gold standard for measuring HD rate of functional decline. […] The floor and ceiling effects make TFC scores more sensitive to change in early stage HD than in late stage HD.
Activities of Daily Living (ADL): 0=total care, 1=gross tasks only, 2=minimal impairment, 3=normal.

[2] = system: patients with HD; remark: listed apart in the source;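 as to Change from baseline in UHDRS TFC Finance ADL, Δ to placebo: UHDRS Total Functional Capacity items for finances and ADL, each scored 0 to 3, where 3 means normal function and 0 means unable (finances) or total care (ADL)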;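 as to Δ to placebo: UHDRS TFC Finance and ADL score, change from baseline: UHDRS Total Functional Capacity items for finances and ADL, each scored 0 to 3, where 3 means normal function and 0 means unable (finances) or total care (ADL)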
[3] = 45 mg bid, Week 26, Stage 1 BL TFC 11-13
[4] = 45 mg bid, Week 52, Stage 1 BL TFC 11-13

CCCN1CCC(c2cccc(S(C)(=O)=O)c2)CC1 [pridopidine, 4-[3-(methylsulfonyl)phenyl]-1-propyl-piperidine]
Change from baseline in UHDRS TFC ADL, Δ to Placebo ([1]; 45 mg bid, Week 26, ALL): 0.12
UHDRS TFC ADL, change from baseline, Δ to placebo ([1]; 45 mg bid, Week 26, BL TFC<7, p value 0.3596): −0.19
UHDRS TFC ADL, change from baseline, Δ to placebo ([1]; 45 mg bid, Week 26, BL TFC≥7, p value 0.0176): 0.24
Change from baseline in UHDRS TFC ADL, Δ to Placebo [1, 3]: 0.65
Change from baseline in UHDRS TFC ADL, Δ to Placebo ([1]; 45 mg bid, Week 52, ALL): 0.14
UHDRS TFC ADL, change from baseline, Δ to placebo ([1]; 45 mg bid, Week 52, BL TFC<7, p value 0.178): −0.33
UHDRS TFC ADL, change from baseline, Wk 52 Δ to placebo ([1]; 45 mg bid, Week 52, BL TFC≥7, p value 0.0019): 0.35
Change from baseline in UHDRS TFC ADL, Δ to Placebo [1, 4]: 0.62
Change from baseline in UHDRS TFC ADL, Δ to Placebo ([1]; 45 mg bid, Week 52, Stage 2 BL TFC 7-10): 0.27
Change from baseline in UHDRS TFC ADL, Δ to Placebo ([1]; 67.5 mg bid, Week 26, ALL): 0.09
UHDRS TFC ADL, change from baseline, Δ to placebo ([1]; 67.5 mg bid, Week 26, BL TFC<7, p value 0.8518): −0.04
UHDRS TFC ADL, change from baseline, Δ to placebo ([1]; 67.5 mg bid, Week 26, BL TFC≥7, p value 0.1132): 0.16
Change from baseline in UHDRS TFC ADL, Δ to Placebo ([1]; 67.5 mg bid, Week 26, Stage 1 BL TFC 11-13): 0.34
Change from baseline in UHDRS TFC ADL, Δ to Placebo ([1]; 67.5 mg bid, Week 52, ALL): 0.03
UHDRS TFC ADL, change from baseline, Δ to placebo ([1]; 67.5 mg bid, Week 52, BL TFC<7, p value 0.0671): −0.4
UHDRS TFC ADL, change from baseline, Wk 52 Δ to placebo ([1]; 67.5 mg bid, Week 52, BL TFC≥7, p value 0.0598): 0.22
Change from baseline in UHDRS TFC ADL, Δ to Placebo ([1]; 67.5 mg bid, Week 52, Stage 1 BL TFC 11-13): 0.21
Change from baseline in UHDRS TFC ADL, Δ to Placebo ([1]; 67.5 mg bid, Week 52, Stage 2 BL TFC 7-10): 0.31
Change from baseline in UHDRS TFC ADL, Δ to Placebo ([1]; 90 mg bid, Week 26, ALL): 0.14
UHDRS TFC ADL, change from baseline, Δ to placebo ([1]; 90 mg bid, Week 26, BL TFC<7, p value 0.3507): 0.18
UHDRS TFC ADL, change from baseline, Δ to placebo ([1]; 90 mg bid, Week 26, BL TFC≥7, p value 0.0526): 0.19
Change from baseline in UHDRS TFC ADL, Δ to Placebo ([1]; 90 mg bid, Week 26, Stage 1 BL TFC 11-13): 0.58
Change from baseline in UHDRS TFC ADL, Δ to Placebo ([1]; 90 mg bid, Week 52, ALL): −0.01
UHDRS TFC ADL, change from baseline, Δ to placebo ([1]; 90 mg bid, Week 52, BL TFC<7, p value 0.073): −0.39
UHDRS TFC ADL, change from baseline, Wk 52 Δ to placebo ([1]; 90 mg bid, Week 52, BL TFC≥7, p value 0.0545): 0.21
Change from baseline in UHDRS TFC ADL, Δ to Placebo ([1]; 90 mg bid, Week 52, Stage 1 BL TFC 11-13): 0.42
Change from baseline in UHDRS TFC ADL, Δ to Placebo ([1]; 90 mg bid, Week 52, Stage 2 BL TFC 7-10): 0.16
Change from baseline in UHDRS TFC ADL, Δ to Placebo ([1]; 112.5 mg bid, Week 26, ALL): 0.17
UHDRS TFC ADL, change from baseline, Δ to placebo ([1]; 112.5 mg bid, Week 26, BL TFC<7, p value 0.8438): −0.04
UHDRS TFC ADL, change from baseline, Δ to placebo ([1]; 112.5 mg bid, Week 26, BL TFC≥7, p value 0.0076): 0.27
Change from baseline in UHDRS TFC ADL, Δ to Placebo ([1]; 112.5 mg bid, Week 26, Stage 1 BL TFC 11-13): 0.7
Change from baseline in UHDRS TFC ADL, Δ to Placebo ([1]; 112.5 mg bid, Week 52, ALL): 0.03
UHDRS TFC ADL, change from baseline, Δ to placebo ([1]; 112.5 mg bid, Week 52, BL TFC<7, p value 0.1393): −0.32
UHDRS TFC ADL, change from baseline, Wk 52 Δ to placebo ([1]; 112.5 mg bid, Week 52, BL TFC≥7, p value 0.0493): 0.23
Change from baseline in UHDRS TFC ADL, Δ to Placebo ([1]; 112.5 mg bid, Week 52, Stage 1 BL TFC 11-13): 0.46
Change from baseline in UHDRS TFC ADL, Δ to Placebo ([1]; 112.5 mg bid, Week 52, Stage 2 BL TFC 7-10): 0.15
Δ to placebo: UHDRS TFC Finance and ADL score, change from baseline ([2]; 45 mg bid, BL CAG Repeat >44, week 26): 0.55
Δ to placebo: UHDRS TFC Finance and ADL score, change from baseline ([2]; 45 mg bid, BL TFC≥9, week 26): 0.53
Δ to placebo: UHDRS TFC Finance and ADL score, change from baseline ([2]; 45 mg bid, BL TFC≥9 and BL TMS 1st 3 Qs, week 26): 0.53
Δ to placebo: UHDRS TFC Finance and ADL score, change from baseline ([2]; 45 mg bid, BL TFC≥9 and CAG Repeat >44, week 26): 0.74
Δ to placebo: UHDRS TFC Finance and ADL score, change from baseline ([2]; 45 mg bid, BL TFC≥9 and CAG Repeats <44 and BL TMS 1st 3 Qs, week 26): 0.74
Δ to placebo: UHDRS TFC Finance and ADL score, change from baseline ([2]; 45 mg bid, BL TFC≥9 or CAG Repeat >44, week 26): 0.5
Δ to placebo: UHDRS TFC Finance and ADL score, change from baseline ([2]; 45 mg bid, CAG Repeats <44 and BL TMS 1st 3 Qs, week 26): 0.59
Δ to placebo: UHDRS TFC Finance and ADL score, change from baseline ([2]; 45 mg bid, TMS 1st 2Qs, week 26): 0.48
Δ to placebo: UHDRS TFC Finance and ADL score, change from baseline ([2]; 45 mg bid, TMS 1st 2Qs, week 52): 0.47
Δ to placebo: UHDRS TFC Finance and ADL score, change from baseline ([2]; 45 mg bid, TMS 1st 3Qs, week 26): 0.18
Δ to placebo: UHDRS TFC Finance and ADL score, change from baseline ([2]; 45 mg bid, TMS 1st 3Qs, week 52): 0.52
Δ to placebo: UHDRS TFC Finance and ADL score, change from baseline ([2]; 45 mg bid, TMS 1st Q, week 26): 0.63
Δ to placebo: UHDRS TFC Finance and ADL score, change from baseline ([2]; 45 mg bid, TMS 1st Q, week 52): 0.71
Change from baseline in UHDRS TFC Finance ADL, Δ to placebo ([2]; 45 mg bid, Week 26, ALL): 0.22
UHDRS TFC Finance ADL, change from baseline, Δ to placebo ([2]; 45 mg bid, Week 26, BL TFC<7, p value 0.3239): −0.34
UHDRS TFC Finance ADL, change from baseline, Δ to placebo ([2]; 45 mg bid, Week 26, BL TFC≥7, p value 0.0114): 0.46
Change from baseline in UHDRS TFC Finance ADL, Δ to placebo [2, 3]: 0.92
Change from baseline in UHDRS TFC Finance ADL, Δ to placebo ([2]; 45 mg bid, Week 26, Stage 2 BL TFC 7-10 (FIG. 11c)): 0.33
Change from baseline in UHDRS TFC Finance ADL, Δ to placebo ([2]; 45 mg bid, Week 26, Stage 2 BL TFC 7-10 (FIG. 11f)): 0.7
Change from baseline in UHDRS TFC Finance ADL, Δ to placebo ([2]; 45 mg bid, Week 52, ALL): 0.46
UHDRS TFC Finance ADL, change from baseline, Δ to placebo ([2]; 45 mg bid, Week 52, BL TFC<7, p value 0.9863): 0.01
UHDRS TFC Finance ADL, change from baseline, Δ to placebo ([2]; 45 mg bid, Week 52, BL TFC≥7, p value 0.0004): 0.72
Change from baseline in UHDRS TFC Finance ADL, Δ to placebo [2, 4]: 0.77
Δ to placebo: UHDRS TFC Finance and ADL score, change from baseline ([2]; 67.5 mg bid, BL CAG Repeat >44, week 26): 0.21
Δ to placebo: UHDRS TFC Finance and ADL score, change from baseline ([2]; 67.5 mg bid, BL TFC≥9, week 26): 0.23
Δ to placebo: UHDRS TFC Finance and ADL score, change from baseline ([2]; 67.5 mg bid, BL TFC≥9 and BL TMS 1st 3 Qs, week 26): 0.18
Δ to placebo: UHDRS TFC Finance and ADL score, change from baseline ([2]; 67.5 mg bid, BL TFC≥9 and CAG Repeat >44, week 26): 0.57
Δ to placebo: UHDRS TFC Finance and ADL score, change from baseline ([2]; 67.5 mg bid, BL TFC≥9 and CAG Repeats <44 and BL TMS 1st 3 Qs, week 26): 0.57
